Experimental findings from ChEMBL document CHEMBL3046897, “Synthesis of 3-{4-[4-dimethylamino-6-(4-methyl-2-oxo-2H-chromen-7-yloxy)-[1,3,5]triazin-2-ylamino]-phenyl}-2-phenyl-5-(4-pyridin-2-yl-piperazin-1-ylmethyl)-thiazolidin-4-one and their biological evaluation” (2012) are described below.

What all share (type): functional
In experiment [1] the test system is Aspergillus clavatus. Description: Antifungal activity against Aspergillus clavatus at 100 ug/disc after 48 hr by paper disk diffusion method. The following applies: read-out: IZ. On the technique in general: Agar diffusion results depend on both activity and mobility in agar.
Experiment [2] has as its system Pseudomonas aeruginosa. Description: Antibacterial activity against Pseudomonas aeruginosa after 24 hr by agar streak dilution method.
The test system of experiment [3] is Shigella flexneri. Description: Antibacterial activity against Shigella flexneri at 100 ug/disc after 24 hr by paper disk diffusion method. As to conditions: read-out: IZ.
Experiment [4] deals with Aspergillus niger. The experiment in a line: Antifungal activity against Aspergillus niger after 48 hr by agar streak dilution method.
For experiment [5], the system named is Escherichia coli. Description: Antibacterial activity against Escherichia coli at 100 ug/disk after 24 hr by paper disk diffusion method. As to conditions: read-out: IZ.
The test system of experiment [6] is Bacillus subtilis. The experiment in a line: Antibacterial activity against Bacillus subtilis at 100 ug/disk after 24 hr by paper disk diffusion method. The following applies: read-out: IZ.
In experiment [7] the test system is Candida albicans. The experiment in a line: Antifungal activity against Candida albicans after 48 hr by agar streak dilution method.
Experiment [8] relates to Klebsiella pneumoniae. The experiment in a line: Antibacterial activity against Klebsiella pneumoniae at 100 ug/disk after 24 hr by paper disk diffusion method. As to conditions: read-out: IZ.
For experiment [9], the system named is Bacillus subtilis. The experiment in a line: Antibacterial activity against Bacillus subtilis after 24 hr by agar streak dilution method.
The subject of experiment [10] is Proteus vulgaris. The experiment in a line: Antibacterial activity against Proteus vulgaris after 24 hr by agar streak dilution method.
Experiment [11] has as its system Shigella flexneri. Description: Antibacterial activity against Shigella flexneri after 24 hr by agar streak dilution method.
Experiment [12] has as its system Staphylococcus aureus. The experiment in a line: Antibacterial activity against Staphylococcus aureus at 100 ug/disc after 24 hr by paper disk diffusion method. As to conditions: read-out: IZ.
The subject of experiment [13] is Aspergillus fumigatus. Description: Antifungal activity against Aspergillus fumigatus at 100 ug/disc after 48 hr by paper disk diffusion method. As to conditions: read-out: IZ.
Experiment [14] relates to Escherichia coli. Description: Antibacterial activity against Escherichia coli after 24 hr by agar streak dilution method.
Experiment [15] has as its system Klebsiella pneumoniae. The experiment in a line: Antibacterial activity against Klebsiella pneumoniae after 24 hr by agar streak dilution method.
For experiment [16], the system named is Aspergillus clavatus. Description: Antifungal activity against Aspergillus clavatus after 48 hr by agar streak dilution method.
Experiment [17] concerns Aspergillus fumigatus. The experiment in a line: Antifungal activity against Aspergillus fumigatus after 48 hr by agar streak dilution method.
Experiment [18] relates to Staphylococcus aureus. Description: Antibacterial activity against Staphylococcus aureus after 24 hr by agar streak dilution method.
In experiment [19] the test system is Aspergillus niger. Description: Antifungal activity against Aspergillus niger at 100 ug/disk after 48 hr by paper disk diffusion method. As to conditions: read-out: IZ.
Experiment [20] deals with Salmonella typhi. Description: Antibacterial activity against Salmonella enterica subsp. enterica serovar Typhi after 24 hr by agar streak dilution method.
Experiment [21] deals with Salmonella typhi. Description: Antibacterial activity against Salmonella enterica subsp. enterica serovar Typhi at 100 ug/disk after 24 hr by paper disk diffusion method. As to conditions: read-out: IZ.
Experiment [22] deals with Pseudomonas aeruginosa. The experiment in a line: Antibacterial activity against Pseudomonas aeruginosa at 100 ug/disk after 24 hr by paper disk diffusion method. The following applies: read-out: IZ.
The subject of experiment [23] is Candida albicans. The experiment in a line: Antifungal activity against Candida albicans at 100 ug/disk after 48 hr by paper disk diffusion method. As to conditions: read-out: IZ.
Experiment [24] relates to Proteus vulgaris. Description: Antibacterial activity against Proteus vulgaris at 100 ug/disk after 24 hr by paper disk diffusion method. The following applies: read-out: IZ.

Values after ≈ are worked out from the molar mass of the structure shown.

Consider `Cc1cc(=O)oc2cc(Oc3nc(Nc4ccc(/N=C/c5cccc(F)c5)cc4)nc(N(C)C)n3)ccc12`, for which the zone of inhibition at 100 µg/disc is 17 mm in the experiment with Aspergillus clavatus [1]; 19 mm in the experiment with Shigella flexneri [3]; 20 mm in the experiment on Escherichia coli [5]; 16 mm with Bacillus subtilis [6]; 16 mm with Klebsiella pneumoniae [8]; 13 mm with Staphylococcus aureus [12]. Also, the zone of inhibition at 100 µg/disc worked out at 14 mm in the experiment with Aspergillus fumigatus [13]; 18 mm in the experiment on Aspergillus niger [19]; 18 mm in the experiment on Salmonella typhi [21]; 17 mm in the experiment with Pseudomonas aeruginosa [22]; 13 mm with Candida albicans [23]; 14 mm in the experiment on Proteus vulgaris [24]. Further, the minimal inhibitory concentration (MIC) (commonly the least concentration at which growth counts as inhibited) is 100 mg/L (≈ 196 µM) against Pseudomonas aeruginosa [2]; 50 mg/L (≈ 97.9 µM) against Aspergillus niger [4]; 100 mg/L (≈ 196 µM) against Candida albicans [7]; 50 mg/L (≈ 97.9 µM) in the experiment with Bacillus subtilis [9]; 100 mg/L (≈ 196 µM) against Proteus vulgaris [10]; 50 mg/L (≈ 97.9 µM) against Shigella flexneri [11]. The MIC amounted to 50 mg/L (≈ 97.9 µM) in the experiment on Escherichia coli [14]; 50 mg/L (≈ 97.9 µM) against Klebsiella pneumoniae [15]; 50 mg/L (≈ 97.9 µM) in the experiment with Aspergillus clavatus [16]; 100 mg/L (≈ 196 µM) against Aspergillus fumigatus [17]; 100 mg/L (≈ 196 µM) with Staphylococcus aureus [18]; 25 mg/L (≈ 49 µM) in the experiment with Salmonella typhi [20].

For `Cc1cc(=O)oc2cc(Oc3nc(Nc4ccc(N5C(=O)C(CN6CCN(c7ccccn7)CC6)SC5c5ccccc5)cc4)nc(N(C)C)n3)ccc12` (configuration not stated), the zone of inhibition at 100 µg/disc in the experiment with Aspergillus clavatus [1] is 16 mm; with Shigella flexneri [3], 15 mm; in the experiment with Escherichia coli [5] it was 16 mm; in the experiment with Bacillus subtilis [6] it was 16 mm; in the experiment on Klebsiella pneumoniae [8], 13 mm; in the experiment with Staphylococcus aureus [12], 14 mm. Moreover, the zone of inhibition at 100 µg/disc with Aspergillus fumigatus [13] was under 10 mm; in the experiment on Aspergillus niger [19] it was 14 mm; with Salmonella typhi [21] it was 14 mm; in the experiment with Pseudomonas aeruginosa [22], 19 mm; with Candida albicans [23], 12 mm; in the experiment with Proteus vulgaris [24], 13 mm. Further, the minimal inhibitory concentration (MIC) was determined as 50 mg/L (≈ 67.4 µM) in the experiment with Pseudomonas aeruginosa [2]; 100 mg/L (≈ 135 µM) against Aspergillus niger [4]; 100 mg/L (≈ 135 µM) against Candida albicans [7]; 100 mg/L (≈ 135 µM) with Bacillus subtilis [9]; 100 mg/L (≈ 135 µM) against Proteus vulgaris [10]; 100 mg/L (≈ 135 µM) with Shigella flexneri [11]. For the same molecule, the MIC in the experiment with Escherichia coli [14], in the experiment on Klebsiella pneumoniae [15], against Aspergillus clavatus [16], against Aspergillus fumigatus [17], in the experiment on Staphylococcus aureus [18] and against Salmonella typhi [20] was 100 mg/L (≈ 135 µM) in each case.

Take `Cc1cc(=O)oc2cc(Oc3nc(Nc4ccc(N5C(=O)CSC5c5cccc(F)c5)cc4)nc(N(C)C)n3)ccc12` (configuration not stated): the zone of inhibition at 100 µg/disc was found to be 21 mm in the experiment with Aspergillus clavatus [1]; 22 mm with Shigella flexneri [3]; 23 mm in the experiment with Escherichia coli [5]; 19 mm in the experiment with Bacillus subtilis [6]; 18 mm in the experiment on Klebsiella pneumoniae [8]; 17 mm with Staphylococcus aureus [12]. The zone of inhibition at 100 µg/disc with Aspergillus fumigatus [13] is 17 mm; with Aspergillus niger [19] it was 20 mm; in the experiment on Salmonella typhi [21], 20 mm; in the experiment on Pseudomonas aeruginosa [22], 19 mm; with Candida albicans [23], 18 mm; in the experiment with Proteus vulgaris [24], 17 mm. Moreover, the minimum inhibitory concentration (MIC) with Pseudomonas aeruginosa [2] stood at 50 mg/L (≈ 85.5 µM); with Aspergillus niger [4], 25 mg/L (≈ 42.8 µM); with Candida albicans [7], 50 mg/L (≈ 85.5 µM); against Bacillus subtilis [9], 50 mg/L (≈ 85.5 µM); against Proteus vulgaris [10], 50 mg/L (≈ 85.5 µM); in the experiment on Shigella flexneri [11] it was 25 mg/L (≈ 42.8 µM). In addition, the MIC against Escherichia coli [14] stood at 25 mg/L (≈ 42.8 µM); in the experiment with Klebsiella pneumoniae [15], 50 mg/L (≈ 85.5 µM); in the experiment on Aspergillus clavatus [16] it was 25 mg/L (≈ 42.8 µM); against Aspergillus fumigatus [17] it was 50 mg/L (≈ 85.5 µM); with Staphylococcus aureus [18], 50 mg/L (≈ 85.5 µM); with Salmonella typhi [20], 25 mg/L (≈ 42.8 µM).
